Calls of active or inactive are those of the source. No cut-off for these calls is given here.
Legend:
[1] = Microsomal stability in mouse liver microsomes assessed as intrinsic clearance at […] and measured upto 60 mins by LC-MS/MS analysis; type: ADME, Microsome; conditions: read-out: CLH
[2] = test system: HEK293; assay: Induction of apoptosis in Wnt-independent human HEK293 cells assessed as viable cells at 10 uM incubated for 24 hrs by Annexin V-Alexa Fluor 647/PI staining based flow cytomtery (Rvb=70.5%); type: functional; conditions: read-out: Activity
[3] = test system: HEK293; assay: Induction of apoptosis in Wnt-independent human HEK293 cells assessed as viable cells at 20 uM incubated for 24 hrs by Annexin V-Alexa Fluor 647/PI staining based flow cytomtery (Rvb=70.5%); type: functional; conditions: read-out: Activity
[4] = test system: HCT-116; assay: Induction of apoptosis in Wnt-dependent human HCT-116 cells assessed as early apoptotic cells at 10 uM incubated for 24 hrs by Annexin V-Alexa Fluor 647/PI staining based flow cytomtery (Rvb=14.3%); type: functional
[5] = test system: HCT-116; assay: Induction of apoptosis in Wnt-dependent human HCT-116 cells assessed as early apoptotic cells at 20 uM incubated for 24 hrs by Annexin V-Alexa Fluor 647/PI staining based flow cytomtery (Rvb=14.3%); type: functional
[6] = test system: CT26; assay: Induction of apoptosis in Wnt-dependent mouse CT26 cells assessed as necrotic cells at 10 uM incubated for 24 hrs by Annexin V-Alexa Fluor 647/PI staining based flow cytomtery (Rvb=1.04%); type: functional
[7] = test system: CT26; assay: Induction of apoptosis in Wnt-dependent mouse CT26 cells assessed as necrotic cells at 20 uM incubated for 24 hrs by Annexin V-Alexa Fluor 647/PI staining based flow cytomtery (Rvb=1.04%); type: functional
[8] = test system: CT26; assay: Antiproliferative activity against Wnt-dependent mouse CT26 cells assessed as cell growth inhibition incubated for 48 hrs by CellTiter-Glo assay; type: functional, cell-based
[9] = test system: CT26; assay: Antitumor activity against mouse CT26 cells xenografted in BALB/c mouse assessed as tumor growth inhibition at 30 mg/kg, ip QD and measured upto 9 days; type: functional; conditions: CT26, 216 h, time <= 9 day, read-out: TGI
[10] = test system: CT26; assay: Antitumor activity against mouse CT26 cells xenografted in BALB/c mouse assessed as tumor growth inhibition at 10 to 30 mg/kg, ip QD and measured upto 9 days; type: functional, organism-based; conditions: dose 10-30 mg/kg, time <= 9.0 day
[11] = Toxicity in BALB/c mouse xenografted with mouse CT26 cells assessed as adverse effect at 30 mg/kg, ip QD and measured upto 9 days in presence of anti-PD-1 antibody cotreatment at 10 mg/kg,ip BIW; type: organism-based; conditions: in vivo, 216 h, time < 9 day
[12] = Toxicity in BALB/c mouse xenografted with mouse CT26 cells assessed as pathological changes in bone marrow at 30 mg/kg, ip QD by hematoxylin and eosin staining based microscopic analysis; type: organism-based; conditions: in vivo
[13] = Toxicity in BALB/c mouse xenografted with mouse CT26 cells assessed as pathological changes in heart at 30 mg/kg, ip QD in presence of anti-PD-1 antibody cotreatment at 10 mg/kg,ip BIW by hematoxylin and eosin staining based microscopic analysis; type: organism-based; conditions: in vivo
[14] = test system: CT26; assay: Antitumor activity in mouse CT26 cells xenografted in BALB/c mouse assessed as increase in IFNgamma-positive CD8+ T cell infiltration into tumor at 30 mg/kg, ip QD by flow cytometry; type: functional, organism-based
[15] = test system: CT26; assay: Synergistic antitumor activity in mouse CT26 cells xenografted in BALB/c mouse assessed as increase in Cd8 mRNA expression level in tumor at 30 mg/kg, ip QD in presence of anti-PD-1 antibody cotreatment at 10 mg/kg,ip BIW by qRT-PCR analysis; type: functional, organism-based
[16] = test system: CT26; assay: Synergistic antitumor activity in mouse CT26 cells xenografted in BALB/c mouse assessed as decrease in Foxp3 expression in Treg tumor cells at 30 mg/kg, ip QD in presence of anti-PD-1 antibody cotreatment at 10 mg/kg,ip BIW by qRT-PCR analysis; type: functional, organism-based

In the case of CC(C)c1ccc(-c2cccc(S(=O)(=O)N3CCCC(c4cccc(OC(C)(C)C(=O)NS(=O)(=O)c5ccc(C(F)(F)F)cc5)c4)C3)c2)cc1 (stereo unspecified), the microsomal CLint [1] is reported as 66.2 µL/min/mg, the viability at 10 µM [2] is reported as 70.8% and the viability at 20 µM [3] is reported as 64.7%. It also gave an Activity [4] of 16.7%, an Activity [5] of 26.4% and an Activity [6] of 1.91%. For the same molecule, the Activity [7] was 1.42%, the Activity [8] was “Active” and the inhibition in vivo at 30 mg/kg [9] was 67.6%. The Activity [10] was “Dose-Dependent Effect”, the Activity [11] was “Non-Toxic” and the Activity [12] was “Non-Toxic”. For the same molecule, the Activity [13] was “Non-Toxic”, the Activity [14] was “Active” and the Activity [15] was “Active”. The Activity [16] was “Active”.

— ChEMBL document CHEMBL5316313, “Discovery of Novel 3-Phenylpiperidine Derivatives Targeting the β-Catenin/B-Cell Lymphoma 9 Interaction as a Single Agent and in Combination with the Anti-PD-1 Antibody for the Treatment of Colorectal Cancer” (J Med Chem, 2023)
